The subject of experiment [1] is Avian myeloblastosis virus. Briefly: Inhibition of AMV reverse transcriptase activity assessed as incorporation of dGMP in poly(rC)-oligo(dG) at 100 uM. On the set-up: scale not given: the % may be the effect or the level left.
The subject of experiment [2] is Avian myeloblastosis virus. Briefly: Inhibition of AMV reverse transcriptase activity assessed as incorporation of dGMP in poly(rC)-oligo(dG) at 1000 uM. On the set-up: scale not given: the % may be the effect or the level left.
The test system of experiment [3] is Avian myeloblastosis virus. Briefly: Inhibition of AMV reverse transcriptase activity assessed as DNA synthesis treated at 100 uM after 5 mins of initiation of DNA synthesis.
The species entered for experiment [4] is Bos taurus. Briefly: Inhibition of calf thymus DNA polymerase-alpha activity using activated calf thymus DNA at 10 uM.
Experiment [5] is filed under the species Bos taurus. Briefly: Inhibition of calf thymus DNA polymerase-alpha activity using activated calf thymus DNA at 1000 uM.
Experiment [6] concerns Avian myeloblastosis virus. Briefly: Inhibition of AMV reverse transcriptase activity assessed as incorporation of dTMP in poly(rA)-oligo(dT) at 1 uM. The arrangement: scale not given: the % may be the effect or the level left.
Experiment [7] has as its system Avian myeloblastosis virus. Briefly: Inhibition of AMV reverse transcriptase activity assessed as incorporation of dTMP in poly(rA)-oligo(dT) at 10 uM. The arrangement: scale not given: the % may be the effect or the level left.
For experiment [8], the system named is Avian myeloblastosis virus. Briefly: Inhibition of AMV reverse transcriptase activity assessed as incorporation of dTMP in poly(rA)-oligo(dT) at 100 uM. On the set-up: scale not given: the % may be the effect or the level left.
Experiment [9] concerns Avian myeloblastosis virus. Briefly: Inhibition of AMV reverse transcriptase activity assessed as incorporation of dTMP in poly(rA)-oligo(dT) at 1000 uM. On the set-up: scale not given: the % may be the effect or the level left.
For experiment [10], the system named is Avian myeloblastosis virus. Briefly: Inhibition of AMV reverse transcriptase activity assessed as incorporation of dGMP in poly(rC)-oligo(dG) at 0.1 uM. The arrangement: scale not given: the % may be the effect or the level left.
Experiment [11] has as its system Avian myeloblastosis virus. Briefly: Inhibition of AMV reverse transcriptase activity assessed as incorporation of dGMP in poly(rC)-oligo(dG) at 1 uM. On the set-up: scale not given: the % may be the effect or the level left.
Experiment [12] concerns Avian myeloblastosis virus. Briefly: Inhibition of AMV reverse transcriptase activity assessed as incorporation of dGMP in poly(rC)-oligo(dG) at 10 uM. The arrangement: scale not given: the % may be the effect or the level left.
Experiment [13] has as its system Avian myeloblastosis virus. Briefly: Inhibition of AMV reverse transcriptase activity assessed as incorporation of dTMP in poly(rA)-oligo(dT) at 0.1 uM. The arrangement: scale not given: the % may be the effect or the level left.

The source made the active and inactive calls. The rule behind the calls is not given here.

Take `O=C1O[C@H]2[C@@H]3OC(=O)c4cc(O)c(O)c(O)c4-c4c(cc(O)c(O)c4O)C(=O)OC[C@H]2O[C@@H](OC(=O)c2cc(O)c(O)c(O)c2)[C@@H]3OC(=O)c2cc(O)c(O)c3c2[C@@H]2C1=CC(=O)[C@](O)(O3)C2(O)O`: the Activity in [1] was 15%; in experiment [2], 12%; in [6], 39%; in [7], 12%; in experiment [8], 6%; in [9], 6%. The Activity was 103% in [10], 93% in experiment [11], 62% in experiment [12] and 89% in [13]. Further, the outcome in experiment [3] and in experiment [5] was Active. Also, the outcome in experiment [4] was inactive.

For the compound `O=C(O[C@H]1O[C@@H]2COC(=O)c3cc(O)c(O)c(O)c3-c3c(cc(O)c(O)c3O)C(=O)O[C@H]2[C@@H]2OC(=O)c3cc(O)c(O)c(O)c3-c3c(cc(O)c(O)c3O)C(=O)O[C@@H]12)c1cc(O)c(O)c(Oc2c(C(=O)O[C@H]3O[C@@H]4COC(=O)c5cc(O)c(O)c(O)c5-c5c(cc(O)c(O)c5O)C(=O)O[C@H]4[C@@H]4OC(=O)c5cc(O)c(O)c(O)c5-c5c(cc(O)c(O)c5O)C(=O)O[C@@H]34)cc(O)c(O)c2O)c1`, the Activity in experiment [1] is 5%; in [2] it was 6%; in [6] it was 27%; in experiment [7], 20%; in experiment [8] it was 19%; in experiment [9], 2%. The Activity in experiment [10] was 80%; in [11], 68%; in experiment [12] it was 7%; in experiment [13], 86%.

Values taken from ChEMBL document CHEMBL1151661, “Inhibitory effect of tannins on reverse transcriptase from RNA tumor virus” (J Nat Prod, 1985).
